According to patent publication US4417052A, “Phenyl-lower-alkyl piperidines and pyrrolidines” (Sterling Drug Inc., priority 1981, dated 1983):
≈ marks a conversion by molar mass, not a printed value. Like-named read-outs stand apart in the source and are kept apart here.

What was measured:
[1] = system: bradykinin; assay: anti-bradykinin test (BDK); format: in vivo
Excerpt: (§1) The test procedures used to determine the analgesic activities of the compounds have been described in detail in the prior art and are as follows: the acetylcholine-induced abdominal constriction test, which is a primary analgesic screening test designed to measure the ability of a test agent to suppress acetylcholine-induced abdominal constriction in mice, described by Collier et al., Brit. J. Pharmacol. Chemotherap. 32, 295 (1968); a modification of the anti-bradykinin test, which is also a primary analgesic screening procedure, described by Berkowitz et al., J. Pharmacol. Exp. Therap. 177, 500-508 (1971), Blane et al., J. Pharm. Pharmacol. 19, 367-373 (1967), Botha et al., Eur. J. Pharmacol. 6, 312-321 (1969) and Deffenu et al., J. Pharm. Pharmacol. 18, 135 (1966); the phenyl-p-quinone-induced writhing test, also a primary analgesic screening test, designed to measure the ability of a test agent to prevent phenyl-p-quinone-induced writhing in mice, described by Pearl and Harris, J. Pharmacol. Exptl. Therap. 154, 319-323 (1966); the rat tail flick radiant thermal heat analgesic (agonist) test described by D'Amour and Smith, J. Pharmacol. Exptl. Therap. 72, 74 (1941) as modified by Bass and VanderBrook, J. Am. Pharm. Assoc. Sci. Ed. 41, 569 (1956); and the phenazocine antagonist test, which is designed to measure the ability of a test agent to antagonize the effect of phenazocine in the above-indicated rat tail flick response test, described by Harris and Pierson, J. Pharmacol. Exptl. Therap. 143, 141 (1964).
Data so obtained for the species found active in one or more of these tests are given in TABLE C below, results being expressed either in terms of the ED50 or, in the acetylcholine-induced writhing test, as the percent inhibition of writhing in the test animals at a given dose level. The ED50 is the calculated Effective Dose in 50% of the test animals. The abbreviations s.c., p.o. and i.p. stand for subcutaneous, peroral and intraperitoneal routes of administration, respectively. The compounds are identified by the Example numbers above where their preparations are described.

[2] = system: acetylcholine-induced abdominal constriction; assay: acetylcholine-induced abdominal constriction test (Ach); format: in vivo, mice; settings: for ED50: Mus musculus, read-out: Ach ED50
Excerpt: as §1, with “J.” for “The test procedures used to determine the analgesic activities of the compounds have been described in detail in the prior art and are as follows: the acetylcholine-induced abdominal constriction test, which is a primary analgesic screening test designed to measure the ability of a test agent to suppress acetylcholine-induced abdominal constriction in mice, described by Collier et al., Brit. J.”
The ED50 is the calculated Effective Dose in 50% of the test animals. The abbreviations s.c., p.o. and i.p. stand for subcutaneous, peroral and intraperitoneal routes of administration, respectively. The compounds are identified by the Example numbers above where their preparations are described.

[3] = system: effect of phenazocine in the rat tail flick response; assay: phenazocine antagonist test in the rat tail flick response (T.F. Antag.); settings: in vivo
Excerpt: as §1, with “41, 569 (1956); and the phenazocine antagonist test, which is designed to measure the ability of a test agent to antagonize the effect of phenazocine in the above-indicated rat tail flick response test, described by Harris and Pierson, J. Pharmacol. Exptl. Therap. 143, 141 (1964).” left out

[4] = system: carrageenin-induced foot edema; assay: inhibition of carrageenin-induced foot edema test (C.E.); format: in vivo; settings: oral; for inhibition in vivo at 80 µmol/kg: dose 0.08 millimoles/kg; for inhibition in vivo at 80 µmol/kg / inhibition in vivo at 324 µmol/kg / inhibition in vivo at 5 µmol/kg / inhibition in vivo at 20 µmol/kg / inhibition in vivo at 4 µmol/kg: read-out: C.E. percent inhibition; for inhibition in vivo at 5 µmol/kg: dose 0.005 millimoles/kg; for inhibition in vivo at 20 µmol/kg: dose 0.02 millimoles/kg; for inhibition in vivo at 4 µmol/kg: dose 0.004 millimoles/kg
[5] = system: phenyl-p-quinone-induced writhing; assay: phenyl-p-quinone-induced writhing test (PPQ); format: in vivo, mice; settings: Mus musculus, po
Excerpt: as §1, with “41, 569 (1956); and the phenazocine antagonist test, which is designed to measure the ability of a test agent to antagonize the effect of phenazocine in the above-indicated rat tail flick response test, described by Harris and Pierson, J. Pharmacol. Exptl. Therap. 143, 141 (1964).” left out

[6] = antipyretic activity in the rat; format: in vivo
[7] = system: rat tail flick response; assay: rat tail flick radiant thermal heat analgesic (agonist) test (T.F. Ag.); settings: in vivo
Excerpt: as §1, with “41, 569 (1956); and the phenazocine antagonist test, which is designed to measure the ability of a test agent to antagonize the effect of phenazocine in the above-indicated rat tail flick response test, described by Harris and Pierson, J. Pharmacol. Exptl. Therap. 143, 141 (1964).” left out

[8] = system: adjuvant-induced arthritis; assay: inhibition of adjuvant-induced arthritis test (A.A.); format: in vivo; settings: oral, read-out: A.A. percent inhibition; for inhibition in vivo at 5 µmol/kg: dose 0.005 millimoles/kg; for inhibition in vivo at 20 µmol/kg: dose 0.02 millimoles/kg; for inhibition in vivo at 80 µmol/kg: dose 0.08 millimoles/kg
[9] = system: herpes simplex virus types 1 and 2; assay: in vitro anti-viral activity against herpes simplex viruses types 1 and 2 (BSC cell line, monkey kidney); format: cell-based; settings: read-out: MIC (Minimum Inhibitory Concentration)
Description: Monolayers of tissue cultures (BSC, cell line, monkey kidney) were infected with one hundred TCID50 (Tissue Culture Infectious Dose50) of infectious virus. After one hour of virus adsorption, fresh maintenance medium containing various concentrations of the test compounds was added to the monolayers. Cultures were then incubated at 36°-37° C., and after forty-eight and seventy-two hours, cultures were examined microscopically. […] In the presence of an active compound, cells grow normally similar to those in the tissue culture control. Simultaneously with the anti-viral evaluation, the toxicity of each compound was evaluated in separate cultures. Identical concentrations of the test compound were added to the tissue culture monolayers in the absence of virus. Those concentrations of the compound which show toxic effects on the cells were not considered in the anti-viral evaluation.

| Structure (SMILES) | ED50 ([1]; po) | ED50 ([2]; po) | T.F. Antag. [3] | inhibition in vivo at 80 µmol/kg [4] | inhibition in vivo at 324 µmol/kg ([4]; dose 0.324 millimoles/kg) | ED50 [5] | antipyretic activity ([6]; 3.25 mg./kg. p.o.) | antipyretic activity ([6]; 6.5 mg./kg. p.o.) | antipyretic activity ([6]; 13 mg./kg. p.o.) | antipyretic activity ([6]; 26 mg./kg. p.o.) | T.F. Ag. [7] | inhibition in vivo at 5 µmol/kg [8] | inhibition in vivo at 20 µmol/kg [8] | inhibition in vivo at 80 µmol/kg [8] | inhibition in vivo at 5 µmol/kg [4] | inhibition in vivo at 20 µmol/kg [4] | MIC [9] | inhibition in vivo at 4 µmol/kg [4] | further results |
| --- | --- | --- | --- | --- | --- | --- | --- | --- | --- | --- | --- | --- | --- | --- | --- | --- | --- | --- | --- |
| CC(CN1CCOCC1)c1cccc(C(=O)c2ccccc2)c1.Cl.O (stereo not drawn) [7H (HCl), 4-[2-(3-benzoylphenyl)propyl]morpholine hydrochloride monohydrate] | 13 mg/kg | 8.4 mg/kg | Inac. | 68% | 73% | 132 mg/kg | not at 3.25 mg./kg. | Showed significant antipyretic activity | Showed significant antipyretic activity | Showed significant antipyretic activity | Inac. |  |  |  |  |  |  |  | ED50 ([1]; ip): 82 mg/kg; ED50 ([2]; sc): 14 mg/kg |
| CC(CN1CCCCC1CC1CCCCC1)c1cccc(C(=O)c2ccccc2)c1 (stereo not drawn) [12, 14] | 63 mg/kg | 55 mg/kg |  | 51% | 69% |  |  |  |  |  |  | 69% | 81% | 87% | 21% | 41% | 6 µg/mL (≈ 14.9 µM) |  | Ach percent inhibition of writhing ([2]; dose 75, s.c.): 27% |
| CC1CCCC(C)N1CCc1cccc(C(O)c2ccccc2)c1 (stereo not drawn) [Example 1B, 2,6-Dimethyl-1-{2-[3-(α-hydroxybenzyl)phenyl]ethyl}piperidine] |  |  |  | 13% |  |  |  |  |  |  |  |  |  |  |  | 0% | 50 µg/mL (≈ 155 µM) | 0% | toxicity (entry in C.E. column) ([4]; dose 0.324 millimoles/kg): Toxic |
| CC(CN1CCCCC1CC1CCCCC1)c1cccc(C(O)c2ccc(Cl)cc2)c1 (stereo not drawn) [Example 5, 2-cyclohexylmethyl-1-{2-[3-(α-hydroxy-4-chlorobenzyl)phenyl]propyl}piperidine] |  |  |  |  |  |  |  |  |  |  |  | 64% | 70% | 88% |  | 41% | 6 µg/mL (≈ 13.6 µM) | 14% |  |
| CC(CN1CCC2(CC1)OCCO2)c1cccc(C(=O)c2ccccc2)c1 (stereo not drawn) [Example 7G, 8-[2-(3-Benzoylphenyl)propyl]-1,4-dioxa-8-azaspiro[4,5]decane] | 14 mg/kg | 4.7 mg/kg | Inac. |  |  | 200 mg/kg | not at 6.5 or 3.25 mg./kg. | not at 6.5 or 3.25 mg./kg. | Showed significant antipyretic activity | Showed significant antipyretic activity | Inac. |  |  |  |  |  |  |  |  |
| CC(CN1CCCCC1CC1CCCCC1)c1cccc(Cc2ccccc2)c1 (stereo not drawn) [Example 10, 2-cyclohexylmethyl-1-[2-(3-benzylphenyl)propyl]piperidine] |  |  |  | 60% |  |  |  |  |  |  |  | 25% | 63% | 91% | 7% | 26% | 6 µg/mL (≈ 15.4 µM) |  |  |
